# In patent publication US11517604B2, “Method for preparing Plectranthus amboinicus fraction having anti-arthritis activity” (ONENESS BIOTECH CO., priority 2011, dated 2022):
# Legend:
# Assay type in all cases: cell-based, human
# [1] = test system: PHA-induced PBMC proliferation; test: Inhibition of PHA-induced PBMC proliferation (MTT assay); conditions: positive control 0.1 uM; PHA 5 μg/mL, 3 days; PHA alone 0.634, without PHA 0.245
# Method: (§1) The peripheral blood mononuclear cells (PBMCs) from the blood of healthy adult donors were diluted and isolated by Ficoll-Paque (FP) gradient centrifugation (Amersham Biosciences) at 600 g for 30 min at room temperature. The isolated PBMCs were washed by phosphate buffered saline, re-suspended in 10% heat inactivated fetal bovine serum (FBS), and seeded in 96-well culture plate with a density of […] cells per well for assessing the anti-arthritis activity of the extracts as described herein.
# PHA-induced PBMC proliferation was used as a technical platform for the assessment of anti-inflammation efficacy of various extracts of the present invention. Human PBMCs were co-cultured with PHA at a final concentration of 5 μg/mL and various extracts of Plectranthus amboinicus at a final concentration of 0˜90 μg/mL for 3 days. PBMCs treated by dexamethasone (DEX) before stimulation by PHA (5 μg/mL) were also included in the experiment as positive control samples. After cells were incubated for 3 days at 37° C. with humid air containing 5% CO2, MTT (methyl thiazolyl tetrazolium, MTT) assays were carried out to evaluate the proliferation rate of PBMCs. […] The absorbance of each well was detected by a photoelectric colorimeter at the wavelength of 540 nm. […] Three independent experiments were performed, and the data determined by MTT assays were further expressed as IC50.
# [2] = test system: TNF-α; test: PHA-induced TNF-α release from PBMCs (ELISA); conditions: PHA + 0.1uM DEX; PHA alone 4031.3, without PHA 271.6
# Method: as §1
# (§2) PHA-induced PBMC proliferation was used as a technical platform for the assessment of anti-inflammation efficacy of various extracts of the present invention. Human PBMCs were co-cultured with PHA at a final concentration of 5 μg/mL and various extracts of Plectranthus amboinicus at a final concentration of 0˜90 μg/mL for 3 days. […] The absorbance of each well was detected by a photoelectric colorimeter at the wavelength of 540 nm. […] Three independent experiments were performed, and the data determined by MTT assays were further expressed as IC50.
# (§3) On Day 3, cell supernatant was collected, divided, and stored at −20° C. until analysis. The amounts of TNF-α, interleukin IL-6, IFN-γ, and IL-5 in the supernatant were measured using Quantikine ELISA kits (R & D Systems, Minneapolis, Minn.) following the manufacturer's instruction.
# [3] = test system: IL-6; test: PHA-induced IL-6 release from PBMCs (ELISA); conditions: PHA + 0.1uM DEX; PHA alone 703.0, without PHA 157
# Method: as §1, §2, §3
# [4] = test system: IFN-γ; test: PHA-induced IFN-γ release from PBMCs (ELISA); conditions: PHA + 0.1uM DEX; PHA alone 176.8, without PHA 25.0
# Method: as §1, §2, §3
# [5] = test system: IL-5; test: PHA-induced IL-5 release from PBMCs (ELISA); conditions: PHA + 0.1uM DEX; PHA alone 161.9, without PHA 37.0
# Method: as §1, §2, §3
structure (smiles),measurement,setting,value
"C[C@@H]1C[C@H]2[C@@H]3CCC4=CC(=O)C=C[C@]4(C)[C@@]3(F)[C@@H](O)C[C@]2(C)[C@@]1(O)C(=O)CO [DEX, dexamethasone]","PHA-induced PBMC proliferation, MTT assay data (absorbance 540 nm)",[1],0.242
same,Concentration of TNF-α released from PBMCs,[2],272.5 pg/mL
same,Concentration of IL-6 released from PBMCs,[3],157 pg/mL
same,Concentration of IFN-γ released from PBMCs,[4],25 pg/mL
same,Concentration of IL-5 released from PBMCs,[5],37 pg/mL
